In series [1] the target is T1, CHOK1 cells engineered to overexpress human CCR2 (Homo sapiens, UniProt P41597).
T1 construct: expressed in transfected cells; host or cells: CHOK1
The series can be described thus: Antibody dependent cellular cytotoxicity (ADCC) reporter assay (Example 199). It counts as cell-based. Conditions: with anti-cotinine antibody (SEQ ID NO: 11/12); Jurkat FcγRIIIa NFAT-luciferase reporter cells; 12-18 hours; EC50 in molar; average or individual runs; read-out: ADCC Reporter Assay pEC50 (converted).

Series [2] concerns endogenous target monocytes in human PBMC. Put plainly: PBMC ex vivo monocyte depletion flow cytometry assay (Example 200). It counts as cell-based. Conditions: with anti-cotinine antibody (SEQ ID NO: 11/12), 18-24 hours, EC50 in molar, read-out: Ex Vivo Depletion Assay pEC50 (converted). The method, boiled down: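 Monocyte depletion is reported as pEC50, averaged or given individually across runs, and read by flow cytometry staining CD45, CD14 and CD4 with a viability dye. Compounds, diluted four-fold over 11 points from 1 mM DMSO stocks, were combined with 30 μg/mL Fc-enhanced anti-cotinine antibody and human PBMC, then incubated 18-24 h at 37° C.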

A short description of series [3]: Blood drug concentration analysis by LC-MS/MS after IV dosing with anti-cotinine antibody (Example 201). It counts as in vivo. Conditions: C57 background, human CCR2 knock-in, mouse; hCCR2 knock-in mice, IV 0.1 mpk compound + 10 mpk anti-cotinine antibody, whole blood, 48 hours post-dose; read-out: Exposure of Compound of Formula (I) 48 hours post-dose. As for the experimental part: After bleeding, each mouse was sacrificed by cervical dislocation. […] Flow Cytometry Analysis:
Samples were analyzed on Q-Trap. […] The total run time was 2 minutes.

Molecules are shown by their SMILES.

Take `CN1C(=O)C[C@H](C(=O)NCCOCCOCCOCCOCCOCCC(=O)N[C@@H]2C[C@H](NC(C)(C)C)CC[C@@H]2N2CC[C@H](Nc3ncnc4ccc(C(F)(F)F)cc34)C2=O)[C@H]1c1cccnc1` [Example 37, (2S,3S)-N-(18-(((1R,2S,5R)-5-(tert-Butylamino)-2-((S)-2-oxo-3-((6-(trifluoromethyl)quinazolin-4-yl)amino)pyrrolidin-1-yl)cyclohexyl)amino)-18-oxo-3,6,9,12,15-pentaoxaoctadecyl)-1-methyl-5-oxo-2-(pyridin-3-yl)pyrrolidine-3-carboxamide]: the figures for the EC50 in series [1] and in series [2] were 12.6 nM and 5.01 nM, respectively. Besides, the concentration at 48 h in series [3] turned out to be 48.7 ng/mL.

For `CN1C(=O)C[C@H](C(=O)NCCOCCOCCOCCOCCOCCOCCC(=O)N[C@@H]2C[C@H](NC(C)(C)C)CC[C@@H]2N2CC[C@H](Nc3ncnc4ccc(C(F)(F)F)cc34)C2=O)[C@H]1c1cccnc1` [Example 38, (2S,3S)-N-(21-(((1R,2S,5R)-5-(tert-Butylamino)-2-((S)-2-oxo-3-((6-(trifluoromethyl)quinazolin-4-yl)amino)pyrrolidin-1-yl)cyclohexyl)amino)-21-oxo-3,6,9,12,15,18-hexaoxahenicosyl)-1-methyl-5-oxo-2-(pyridin-3-yl)pyrrolidine-3-carboxamide], the EC50 in series [1] is 2.51 nM; in series [2], 1.58 nM. Further, the concentration at 48 h in series [3] was found to be 47.6 ng/mL.

Consider `CC(C)N(C)[C@@H]1CC[C@H](N2CC[C@H](Nc3ncnc4ccc(C(F)(F)F)cc34)C2=O)[C@H](NC2CCN(C(=O)CCOCCOCCOCCOCCNC(=O)[C@H]3CC(=O)N(C)[C@@H]3c3cccnc3)CC2)C1` [Example 69, (2S,3S)-N-(15-(4-(((1R,2S,5R)-5-(Isopropyl(methyl)amino)-2-((S)-2-oxo-3-((6-(trifluoromethyl)quinazolin-4-yl)amino)pyrrolidin-1-yl)cyclohexyl)amino)piperidin-1-yl)-15-oxo-3,6,9,12-tetraoxapentadecyl)-1-methyl-5-oxo-2-(pyridin-3-yl)pyrrolidine-3-carboxamide], for which the EC50 was 0.316 nM in series [1] and 1.58 nM in series [2]. Further, the concentration at 48 h in series [3] came out at 39.9 ng/mL.

For the molecule `CN1C(=O)C[C@H](C(=O)NCCOCCNC(=O)[C@H]2C[C@H](NC(=O)CCOCCC(=O)N[C@@H]3C[C@H](NC(C)(C)C)CC[C@@H]3N3CC[C@H](Nc4ncnc5ccc(C(F)(F)F)cc45)C3=O)C2)[C@H]1c1cccnc1` [Example 188, (2S,3S)-N-(2-(2-((1R,3S)-3-(3-(3-(((1R,2S,5R)-5-(tert-butylamino)-2-((S)-2-oxo-3-((6-(trifluoromethyl)quinazolin-4-yl)amino)pyrrolidin-1-yl)cyclohexyl)amino)-3-oxopropoxy)propanamido)cyclobutane-1-carboxamido)ethoxy)ethyl)-1-methyl-5-oxo-2-(pyridin-3-yl)pyrrolidine-3-carboxamide], the EC50 in series [1] is 0.501 nM; in series [2], 0.316 nM. Further, the concentration at 48 h in series [3] stood at 73 ng/mL.

These data come from patent US12521393B2, “Cytotoxicity targeting chimeras for CCR2-expressing cells” (GLAXOSMITHKLINE INTELLECTUAL PROPERTY DEVELOPMENT LIMITED, priority 2021, dated 2026).
